Assay results as given in article PMC6225478, “Natural Scaffolds with Multi-Target Activity for the Potential Treatment of Alzheimer’s Disease” (Molecules : A Journal of Synthetic Chemistry and Natural …, 2018).
Several values for one entry are separate records, joined by “and”; a condition that tells them apart may be missing. Equal entries are not always repeated. Where two headings read alike, the source gives them in different places.

Tests used:
[1] = tested on: AChE; set-up: method as in PMID 20692939; details: cited from earlier work
[2] = Antioxidant activity (DPPH radical scavenging assay); details: DPPH 100 µM in methanol, 30 min
Procedure: The DPPH assay is routinely practiced for the assessment of the free radical scavenging potential of an antioxidant molecule.
The DPPH radical scavenging assay was performed in 96-well microplates according to the method reported by Blois with some modifications.
A freshly prepared solution of DPPH in methanol (100 µM final concentration) was added to test compounds methanolic solution. The mixtures were shaken vigorously and left to stand in the dark for 30 min at room temperature. Then absorbance was read at 520 nm using a spectrophotometric plate reader (Victor 3 Perkin-Elmer).
The antioxidant activity was determined as the RSA% (radical scavenging activity) and calculated using the following equation: RSA% = 100 × [(Ao − Ai)/Ao] where Ao and Ai are the DPPH absorbance in the absence or in the presence of antioxidants, respectively. Different sample concentrations were used in order to obtain anti-radical curves for calculating the EC50 values. Anti-radical curves were plotted referring to log concentration on the x-axis and their RSA% on the y-axis. The EC50 values and statistical analyses were processed using the GraphPad Prism 5 software (San Diego, CA, USA).
Values of all parameters are expressed as mean ± SEM of at least three independent measurements in triplicate.

[3] = target: T1, BChE from equine serum (Equus caballus, UniProt P81908); test: BChE inhibition, modified Ellman's spectrophotometric assay; format: biochemical; details: for esBChEi %I (10μM): percentage of inhibition at 10 μM inhibitor, equine serum BChE
T1 construct: purchased Sigma-Aldrich, Milan, Italy; host or cells: equine serum
T1 sequence (P81908 whole entry): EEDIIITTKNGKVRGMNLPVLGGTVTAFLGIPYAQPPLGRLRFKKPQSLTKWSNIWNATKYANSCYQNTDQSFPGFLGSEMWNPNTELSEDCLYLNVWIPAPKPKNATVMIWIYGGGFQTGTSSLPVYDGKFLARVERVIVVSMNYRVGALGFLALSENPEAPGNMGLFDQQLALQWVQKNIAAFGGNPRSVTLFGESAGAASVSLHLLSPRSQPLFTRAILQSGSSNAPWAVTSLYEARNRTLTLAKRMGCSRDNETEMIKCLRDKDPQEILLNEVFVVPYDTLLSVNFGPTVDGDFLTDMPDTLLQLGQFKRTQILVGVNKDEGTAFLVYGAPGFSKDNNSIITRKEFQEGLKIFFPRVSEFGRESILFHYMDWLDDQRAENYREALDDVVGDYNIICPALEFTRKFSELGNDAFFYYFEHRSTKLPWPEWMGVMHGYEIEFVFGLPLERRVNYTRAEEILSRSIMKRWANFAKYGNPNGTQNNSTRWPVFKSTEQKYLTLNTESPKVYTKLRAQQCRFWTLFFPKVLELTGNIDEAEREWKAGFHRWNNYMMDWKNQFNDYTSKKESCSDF
Procedure: (§1) A modified protocol of Ellman’s spectrophotometric assay [54] adapted to a 96-well plate procedure was followed as previously described [39]. Incubation samples of AChE from electric eel or BChE from equine serum (eeAChE, 463 U/mg, and esBChE, 13 U/mg, Sigma-Aldrich, Milan, Italy) were set in phosphate buffer (pH 8.0) containing 0.5 mM 5,5′-dithiobis(2-nitrobenzoic acid) (DTNB; Sigma-Aldrich, Milan, Italy) as the chromophoric reagent alone or in the presence of the inhibitor (10 μM). Incubations were carried out in clear flat-bottomed, 96-well plates (Greiner Bio-One GmbH, Frickenhausen, Germany) in duplicate. […] After incubation for 20 min at 25 °C, 0.5 mM acetyl- or butyrylthiocholine iodide (Sigma-Aldrich, Milan, Italy) were added as the substrates and AChE-catalyzed hydrolysis was followed by measuring the increase of absorbance at 412 nm for 5 min at 25 °C in a Tecan Infinite M1000 Pro multiplate reader (Tecan, Cernusco S.N., Italy). Inhibition values and IC50s were calculated with a GraphPad Prism as the mean of three independent experiments and are expressed as mean ± SEM.

[4] = target: T2, Aβ1–40 (Homo sapiens, UniProt P05067); test: Inhibition of Aβ1–40 aggregation (ThT fluorescence); format: biochemical; details: Aβ1–40 30 μM; for iAβ %I (100μM): percentage of inhibition at 100 μM inhibitor; for IC50: 2 h at 25 °C, ThT fluorescence
T2 construct: diluting Aβ1–40 (EZBiolab, Carmel, IN, USA); purchased EZBiolab, Carmel, IN, USA
T2 sequence (P05067 672-711): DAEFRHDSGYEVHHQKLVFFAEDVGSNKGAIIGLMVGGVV
Procedure: The spectrofluorimetric assays measured ThT fluorescence in the presence of Aβ and were done as previously described [39]. Co-incubation samples were prepared in 96-well black, non-binding microplates (Greiner Bio-One GmbH, Frickenhausen, Germany) by diluting Aβ1–40 (EZBiolab, Carmel, IN, USA) alone or in the presence of the inhibitor to a final concentration of 30 μM and 100 μM, respectively, in PBS (pH 7.4) containing 10% DMSO and 2% 1,1,1,3,3,3-hexafluoro-2-propanol (HFIP). After 2 h of incubation at 25 °C, 25 μM ThT solution in phosphate buffer (pH 6.0) was added and fluorescence was read in a multi-plate reader Infinite M1000 Pro (Tecan, Cernusco S.N., Italy). […] Assays were run in triplicate. Values are expressed as mean ± SEM.

[5] = target: T3, AChE from electric eel (Electrophorus electricus, UniProt O42275); test: biochemical
T3 construct: purchased Sigma-Aldrich, Milan, Italy
T3 sequence (O42275 24-633): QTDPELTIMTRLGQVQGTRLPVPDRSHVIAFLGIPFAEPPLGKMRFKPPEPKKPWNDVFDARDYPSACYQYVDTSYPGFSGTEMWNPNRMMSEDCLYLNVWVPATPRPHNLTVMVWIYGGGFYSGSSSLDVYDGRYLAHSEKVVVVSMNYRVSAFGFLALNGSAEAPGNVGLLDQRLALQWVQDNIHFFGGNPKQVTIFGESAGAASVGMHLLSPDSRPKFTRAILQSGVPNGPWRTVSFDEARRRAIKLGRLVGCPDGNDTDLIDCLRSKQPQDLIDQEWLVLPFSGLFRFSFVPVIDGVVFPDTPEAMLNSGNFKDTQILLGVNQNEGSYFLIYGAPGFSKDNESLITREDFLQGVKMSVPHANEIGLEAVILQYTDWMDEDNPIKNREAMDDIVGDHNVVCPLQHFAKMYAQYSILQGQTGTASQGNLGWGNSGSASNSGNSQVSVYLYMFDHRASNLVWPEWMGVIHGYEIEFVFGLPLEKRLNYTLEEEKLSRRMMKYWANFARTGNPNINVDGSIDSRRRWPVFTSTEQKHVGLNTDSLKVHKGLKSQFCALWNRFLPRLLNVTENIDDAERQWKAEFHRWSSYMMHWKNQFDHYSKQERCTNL
Procedure: as §1

[6] = tested on: AChE; set-up: method as in earlier work; details: ref 40 (Ali et al.); read-out: AChEi (means ± SEMs of triplicate experiments); cited from earlier work
[7] = tested on: Aβ; set-up: method as in PMID 21261647; details: read-out: Inhibitory activity of Aβ aggregation IC50; cited from earlier work
[8] = tested on: AChE; set-up: method as in PMID 28286309; details: at 100 μg/mL; cited from earlier work
[9] = tested on: BChE; set-up: method as in PMID 28286309; details: at 100 μg/mL; cited from earlier work
[10] = acetylcholinesterase from electric eel, mean ± SEM, read-out: eeAChEi IC50 (μM ± SEM)
[11] = butyrylcholinesterase from equine serum, mean ± SEM, i.a. = not active

## COC(=O)/C=C/c1ncn(C)c1CC=C(C)C [Compound 6, Fungerin]
[1]
  Activity as an AChE inhibitor: medium-high micromolar range
[2]
  Antioxidant Activity EC50 (μmol/µmol of DPPH ± SEM): >100 μmol/µmol of DPPH
[3]; butyrylcholinesterase from equine serum, mean ± SEM, i.a. = not active, read-out: esBChEi IC50 (μM ± SEM)
  IC50: 1.75 ± 0.59 µM
[3]; esBChE vs eeAChE IC50
  Potency on BChE compared to that on AChE: about 50 times
[4]
  iAβ %I (100μM): %I (100μM): 33 ± 9
[5]; [10]
  IC50: 86 ± 15 µM

## O=Cc1c(O)ccc2ccc(=O)oc12 [8-formyl-umbelliferon]
[6]
  IC50: 19.1 ± 0.57 µM

## O=Cc1cc2ccc(=O)oc2cc1O [6-formyl-umbelliferone]
[6]
  IC50: 16.7 ± 1.62 µM

## C/C=C/c1cc2c(c(=O)o1)[C@@H](O)[C@@H](O)[C@H](C)O2 [Compound 2, 2-epi-Radicinol]
[2]
  Antioxidant Activity EC50 (μmol/µmol of DPPH ± SEM): > 100 μmol/µmol of DPPH
[3]; [11]
  esBChEi IC50 (μM ± SEM): i.a.
[4]; read-out: iAβ IC50 (μM ± SEM)
  IC50: 74 ± 1 µM
[5]; [10]
  IC50: 6.86 ± 0.67 µM

## Oc1c(I)cc(Cl)c2cccnc12 [Clioquinol, reference compound]
[2]
  Antioxidant Activity EC50 (μmol/µmol of DPPH ± SEM): 0.74 ± 0.04 μmol/µmol of DPPH
[3]
  esBChEi %I (10μM): %I (10μM): 10 ± 1%
[4]; read-out: iAβ IC50 (μM ± SEM)
  IC50: 7.6 ± 0.8 µM
[5]; [10]
  IC50: 8.12 ± 1 µM

## ε-viniferin glucoside
[7]
  IC50: 0.2 ± 0.3 µM

## C/C=C/c1cc2c(c(=O)o1)C(=O)[C@@H](O)[C@H](C)O2 [Compound 5, Radicinin]
[2]
  Antioxidant Activity EC50 (μmol/µmol of DPPH ± SEM): >100 μmol/µmol of DPPH
[3]
  esBChEi %I (10μM): %I (10μM): 6 ± 1%
[4]
  iAβ %I (100μM): %I (100μM): 44 ± 3
[5]; [10]
  IC50: 8.96 ± 0.97 µM

## O=C(O)c1cc(O)c(O)c(O)c1 [Gallic acid, reference compound]
[2]
  Antioxidant Activity EC50 (μmol/µmol of DPPH ± SEM): 0.054 ± 0.004 μmol/µmol of DPPH

## CC[C@H](C)[C@@H]1NC(=O)C(C(C)=O)=C1O [Compound 1, Tenuazonic acid]
[2]
  Antioxidant Activity EC50 (μmol/µmol of DPPH ± SEM): 2.6 μmol/µmol of DPPH and 2.6 ± 0.2 μmol/µmol of DPPH
[4]; iAβ IC50 (μM ± SEM)
  IC50: ~100 µM
[4]
  iAβ %I (100μM): %I (100μM): 50 ± 8
[5]
  IC50: 8.13 ± 0.08 µM

## O=c1c(O)c(-c2ccc(O)c(O)c2)oc2cc(O)cc(O)c12 [Quercetin, reference compound]
[4]; read-out: iAβ IC50 (μM ± SEM)
  IC50: 0.82 ± 0.07 µM

## pteryxin
[8]
  Percentage of inhibition against AChE: 9.30 ± 1.86%
[9]
  Percentage of inhibition against BChE: 91.62 ± 1.53%

## Oc1ccc(/C=C/c2cc(O)cc3c2[C@H](c2cc(O)cc(O)c2)[C@@H](c2ccc(O)c(O)c2)O3)cc1 [scirpusin A]
[7]
  IC50: 0.7 ± 0.3 µM

## COc1cc(O)c2c(c1)C[C@@H](C)OC2=O [Compound 4, 6-Methoxymellein]
[2]
  Antioxidant Activity EC50 (μmol/µmol of DPPH ± SEM): > 100 μmol/µmol of DPPH
[3]
  esBChEi %I (10μM): %I (10μM): 10 ± 3%
[4]; read-out: iAβ IC50 (μM ± SEM)
  IC50: 98 ± 3 µM
[5]; [10]
  IC50: 11.4 ± 0.8 µM

## COc1ccc2c3c1O[C@H]1C[C@@H](O)C=C[C@@]31CCN(C)C2 [Galantamine]
[9]
  Percentage of inhibition against BChE: 81.93 ± 2.52%

## COc1c(C)c2c(c(O)c1C/C=C(\C)CCC(=O)O)C(=O)OC2 [Compound 3, Mycophenolic acid]
[2]
  Antioxidant Activity EC50 (μmol/µmol of DPPH ± SEM): 14.7 μmol/µmol of DPPH and 14.7 ± 3.4 μmol/µmol of DPPH
[3]; [11]
  esBChEi IC50 (μM ± SEM): i.a.
[4]
  iAβ %I (100μM): %I (100μM): 38 ± 3
[5]; [10]
  IC50: 7.84 ± 0.72 µM
